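Dose response: 5 concentrations. Exposure: 48 h. Format: 96-well plates. Endpoint: linear interpolation; highest concentration if not reached. GI50 is the concentration that inhibits growth by half.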 Calls of active or inactive are those of the source. Cut-off read from the data, not from the text of the source: active = GI50 up to about 1.1 µM and inactive = higher.
Key:
Assay in all cases: NCI anticancer screen, dose series, 48 h
EKVX = test system: EKVX
Hs-578T = test system: Hs-578T
786-0 = test system: 786-0
SK-MEL-28 = test system: SK-MEL-28
PC-3 = test system: PC-3
COLO 205 = test system: COLO 205
SW-620 = test system: SW-620
SK-OV-3 = test system: SK-OV-3
HOP-62 = test system: HOP-62
LOX IMVI = test system: LOX IMVI
SN12C = test system: SN12C
Malme-3M = test system: Malme-3M
SNB-19 = test system: SNB-19
SK-MEL-2 = test system: SK-MEL-2
IGROV-1 = test system: IGROV-1
A498 = test system: A498
T47D = test system: T47D
HCC 2998 = test system: HCC 2998
HOP-92 = test system: HOP-92
K562 = test system: K562

Measured: GI50

O=C1CCCCc2cccc(O)c21
inactive: EKVX > 100 µM | Hs-578T > 100 µM | 786-0 > 100 µM | SK-MEL-28 > 100 µM | PC-3 > 100 µM | COLO 205 > 100 µM | SW-620 > 100 µM | SK-OV-3 > 100 µM | HOP-62 > 100 µM | LOX IMVI > 100 µM | SN12C > 100 µM | Malme-3M > 100 µM | SNB-19 > 100 µM | SK-MEL-2 > 100 µM | IGROV-1 > 100 µM | A498 > 100 µM | T47D > 100 µM | HCC 2998 > 100 µM | HOP-92 > 100 µM | K562 > 100 µM

— ChEMBL document CHEMBL1201862, “PubChem BioAssay data set” (2004)
